{
  "source": "patent US20240366648A1",
  "about": "“NAD-AUGMENTATION THERAPY FOR PARKINSON'S DISEASE” (Vestlandets Innovasjonsselskap AS (VIS), priority 2021, published 2024)",
  "key": {"yeast": {"system": "yeast", "details": "Belenky et al. 2007; cited from earlier work"}, "[1]": {"system": "GDF15, FGF21, Nf-L, inflammatory cytokines", "experiment": "Nf-L, GDF15, FGF21 and cytokine detection in serum and CSF", "assay_type": "in vivo, human", "procedure": "Neurofilament light chain (Nf-L) measurement in CSF and serum samples was carried out in duplicates using the Simoa NF-light Advantage (SR-X) Kit (Quanterix) according to the manufacturer's recommendations and analyzed on an Simoa SR-X instrument (Quanterix). GDF15 and FGF21 detection was carried out using ELISA kits GDF-15/MIC-1 Human ELISA (RD191135200R) and Fibroblast Growth Factor 21 Human ELISA (RD191108200R) from BioVendor according to manufacturer's recommendations. For CSF analyses of GDF15, CSF was diluted 1:2 in dilution buffer. All samples were analyzed twice in duplicates. Inflammatory Cytokine screening was carried out using the Human Cytokine Magnetic 35-plex panel (Invitrogen), detecting FGF-Basic, IL-1 beta, G-CSF, IL-10, IL-13, IL-6, IL-12, RANTES, Eotaxin, IL-17A, MIP-1 alpha, GM-CSF, MIP-1 beta, MCP-1, IL-15, EGF, IL-5, HGF, VEGF, IL-1 alpha, IFN-gamma, IL-17F, IFN-alpha, IL-9, IL-1RA, TNF-alpha, IL-3, IL-2, IL-7, IP-10, IL-2R, IL-22, MIG, IL-4, IL-8. CSF and serum samples were analyzed according to the manufacturer's recommendations and measured on a BioPlex 200 instrument (BioRad).\nThe between visit change ([visit 2]−[visit 1]) in MDS-UPDRS (total of subsections I-III; and individual subsections I, II and III) was compared between the NR and placebo groups using independent Student's t-test. In addition, the between visit change in MDS-UPDRS (total and subsections) within the NR, MRS-responder, and placebo groups was assessed by paired Student's t-test. For the 31P-MRS analyses, the change in measured metabolites between visit 1 and visit 2 was assessed in the placebo- and NR group using paired Student's t-test. In addition, the between-visit change in NAD/ATP-α was compared between the NR and placebo group by independent Student's t-test. For PET analyses, changes in network scores with treatment were evaluated for each group separately using paired Student's t-tests or permutation tests. Relationships between network values, NAD levels and MDS-UPDRS motor ratings or between treatment-related changes in these variables were evaluated using Pearson's product-moment correlations; Spearman rank-order correlation coefficients were computed for non-normal distributions of the variables. These statistical tests were performed using SPSS (SPSS Inc., Chicago, IL); results were considered significant for p≤0.05 (two-tailed). Metabolite quantification data, Nf-L; GDF15, FGF21 and cytokine data were analyzed by paired sample Wilcoxon test using GraphPad Prism v 6.07."}, "[2]": {"system": "NAD metabolome in skeletal muscle", "experiment": "Metabolomic analysis (LC-MS) in skeletal muscle biopsies", "assay_type": "in vivo, human", "details": "oral NR 1000 mg/day, 30 days", "procedure": "Biological material was collected at both visits, following a minimum 6-hour fasting and within 6 hours after study drug intake for visit 2. Sampling included whole blood, serum, peripheral blood mononuclear cells (PBMCs), cerebrospinal fluid (CSF) and muscle biopsy. Lumbar puncture was performed according to standard clinical procedures to collect 10 ml CSF. Needle biopsy of the vastus lateralis muscle was performed using a Bard Magnum biopsy gun (BD©, United States) and 12G×10 cm biopsy needles. Muscle biopsies were immediately dissected to remove any non-muscle tissue (e.g., fat or fascia) and snap-frozen in liquid nitrogen.\nStandard substances of all the targeted compounds were used to prepare stock standard solutions and these solutions were mixed and diluted to make serially diluted standard solutions in an internal standard solution containing 11 isotope-labeled compounds (NAD-13C5, NADH-d5, nicotinamide riboside-d4, nicotinic-d4 acid, nicotinic acid-d4 riboside, AMP-15N5, ATP-13C10, nicotinamide-d4, 1-methylnicotinamide-d3, adenosine-13C5 and GTP-13C10) in a concentration range of 0.0002 to 20 nmol/mL. Muscle tissues were added with water at 2.5 μL/mg raw material and then homogenized on an MM 400 mixer mill for 1 min twice. Methanol at 7.5 μL/mg raw material was then added and the samples were homogenized for 1 min three times. The samples were then placed at −20° C. for 2 h before centrifugation. 20 μL of the supernatant was mixed with 180 μL of the internal standard solution. The samples were then placed at 5° C. for 1 h and then centrifuged for 5 min at 21,000 g. The clear supernatants were used for LC-MS analyses. For metabolomic analyses in PBMCs, several aliquots of one sample were thawed on ice, centrifuged (10 min, 350×g, 4° C.), resuspended in ice-cold PBS and counted on a countess II cell counter. The equivalent volume of 10 Mio live cells was transferred into a new tube, centrifuged (10 min, 350×g, 4° C.), the supernatant removed, and the pellet immediately frozen on dry ice. Each PBMC sample was made into 75% methanol at a concentration of 50 μL per 1 Mio cells. After cell lysis on a MM 400 mixer mill for 1 min twice, the sample was centrifuged. 20 μL of the clear supernatant was mixed with 180 μL of the internal standard solution and was then used for LC-MS analysis.\nFor UPLC-MRM/MS, 10 μL aliquots of each standard solution and each sample solutions were injected to run LCMRM/MS either on a Waters Acquity UPLC coupled to a Sciex QTRAP 6500 Plus mass spectrometer with (−) ion detection or ESI or on an Agilent 1290 UHPLC system coupled to an Agilent 6495B QQQ mass spectrometer with (+) ion detection. For UPLC-(−) MRM/MS, a reversed-phase C18 LC column (2.1*100 mm, 1.8 μm) was used for LC separation, with the use of a tributylamine-ammonium acetate buffer (solvent A) and acetonitrile (solvent B) as the mobile phase for gradient elution at 50° C. and 0.25 mL/min. For UPLC-(+) MRM/MS, a reversed-phase C18 column (2.1*150 mm, 1.8 μm) was used for LC separation, with the use of hepatofluorobutyrate buffer (solvent A) and methanol (solvent B) as the mobile phase for gradient elution at 50° C. and 0.3 mL/min. Concentrations of individual metabolites detected in each sample were calculated by constructing linear-regression curves of individual metabolites with the analyte-to-internal standard peak area ratios (As/Ai) of standard solutions in each set of LC-MS runs and then by interpolating the calibration curves with the as/Ai values measured from injections of sample solutions in an appropriate concentration range for each compound. Sample preparation and metabolomic analyses were conducted at Creative Proteomics, NY, USA.\nThe between visit change ([visit 2]−[visit 1]) in MDS-UPDRS (total of subsections I-III; and individual subsections I, II and III) was compared between the NR and placebo groups using independent Student's t-test. […]"}},
  "data": [
    {"smiles": "NC(=O)c1ccc[n+]([C@@H]2O[C@H](CO)[C@@H](O)[C@H]2O)c1", "note": "[NR, nicotinamide riboside]", "values": [
      {"measurement": "lifespan in yeast", "setting": "yeast", "result": "extends lifespan"},
      {"measurement": "FGF21 in serum", "setting": "[1]; NR group, visit 2 vs visit 1", "result": "unchanged"},
      {"measurement": "GDF15 levels in CSF (decrease)", "setting": "[1]; NR group, visit 2 vs visit 1", "result": "not in CSF"},
      {"measurement": "GDF15 levels in serum", "setting": "[1]; NR group, visit 2 vs visit 1", "result": "mild but significant decrease"},
      {"measurement": "neurofilament light chain (Nf-L) levels in serum and CSF", "setting": "[1]; NR group, visit 2 vs visit 1", "result": "unchanged"},
      {"measurement": "levels of several inflammatory cytokines in serum and CSF", "setting": "[1]; NR group, within-group, visit 2 vs visit 1", "result": "reduced"},
      {"measurement": "fold change of serum cytokines that also decreased in placebo, compared between groups", "setting": "[1]; NR vs placebo", "result": "no significant difference"},
      {"measurement": "Me-2-PY level in muscle tissue after treatment", "setting": "[2]", "result": "strongly elevated"},
      {"measurement": "Me-4-PY level in muscle tissue after treatment", "setting": "[2]", "result": "strongly elevated"},
      {"measurement": "NAAD level in muscle tissue after treatment", "setting": "[2]", "result": "strongly elevated"},
      {"measurement": "Nam N-oxide level in muscle tissue after treatment", "setting": "[2]", "result": "strongly elevated"},
      {"measurement": "acetyl-CoA, CoA, SAM and its metabolites, energy compounds such as ATP in muscle", "setting": "[2]", "result": "no significant change"},
      {"measurement": "methyl-Nam (Me-Nam) level in muscle tissue after treatment", "setting": "[2]", "result": "strongly elevated"},
      {"measurement": "steady state levels of NAD (NAD+ and NADH), NAD precursors and intermediates in muscle", "setting": "[2]", "result": "not significantly changed"}
    ]}
  ]
}
